Results from patent US20150104868A1, “Methods of Maintaining and Improving Biological Cell Function and Activity” (GARGILL INCORPORATED, priority 2012, published 2015).
Entries after “also recorded” stand apart in the source; their conditions may differ. Where two headings read alike, the source gives them in different places.

Tests used:
[1] = tested on: Mouse intestine (entero-endocrine) STC-1 cells
Procedure: Appropriate blanks, positive controls, and standards were also included.
The lactate dehydrogenase (LDH) leakage from cells was analyzed in the supernatants as a marker for cytotoxic cell death.

HUVEC cells [2] = assay: Oxidative damage: protein carbonyls in HUVEC; format: cell-based, human; conditions: HG 30 mM glucose 24 h, with or without 5 mM ERT/MAN
Procedure: The prepared cells were seeded in 6 well plates and T75 flasks and grown until 80% confluence. The medium was removed, and the cells were washed with Hank's Balanced Salt Solution (HBSS). […] The vehicle solution is the solvent for the test compounds, in this case being the medium without supplements. […] The cells described above were also incubated for 24 hours with a 7 mM, normal glucose (NG) solution or in some instances, with a 15 mM, intermediary glucose (IG) solution. See, for example, FIG. 6. Subsequently, the cells were incubated for 24 hours. The same protocol was used for incubation with Nε-(carboxymethyl)lysine (CML, final concentration 1 micromolar) and 1,3-morpholino sidnonimine (SIN-1, final concentration 0.5 mM). […] Hyperglycemia is strongly associated with oxidative stress, an imbalance between the formation of reactive oxygen species and the present antioxidants. Excess reactive oxygen species react with critical cellular targets, viz. membrane lipids, proteins and (deoxy)ribonucleic acids. […] Accordingly, one of the targeted assays included studying a comparison of HG to HGERT conditions, where the oxidative damage was evaluated showing that the protein carbonyls decreased from 6.55 nM/mg protein with HG to 3.77 with […]=0.089). Protein carbonyls are end products of reactions between proteins and reactive oxygen species (ROS), formed during oxidative stress. […]

HUVEC cells [3] = assay: HUVEC cell viability assay (trypan blue, percentage of dead cells); format: cell-based, human; conditions: ERT/MAN 5 mM 1 h before, SIN-1 0.5 mM, CML 1 micromolar
Procedure: A HUVEC cell line (CRL-1730) was obtained from American Type Culture Collection (ATCC) of Manassas, Va. […] The prepared cells were maintained in collagen coated T75 flasks (Greiner Bio-one) at 37° C. in a 5% CO2 atmosphere. The prepared cells were subjected to various stressors. Stressors, for purposes of the examples, include conditions of stress caused by glucose directly or indirectly through the formation or elevation of other substances that cause stress. Diabetic stressors include high glucose (HG; 30 mM, 24 h), TNFα: pro-inflammatory agent, Nε carboxymethyllysine: advanced glycation end (AGE) product, and SIN-1: peroxynitrite generator. Prepared cells were also exposed to normal glucose (NG; 7 mM, 24 h) as a control. The prepared cells were seeded in 6 well plates and T75 flasks and grown until 80% confluence. The medium was removed, and the cells were washed with Hank's Balanced Salt Solution (HBSS). […] The vehicle solution is the solvent for the test compounds, in this case being the medium without supplements. […] The cells described above were also incubated for 24 hours with a 7 mM, normal glucose (NG) solution or in some instances, with a 15 mM, intermediary glucose (IG) solution. See, for example, FIG. 6. Subsequently, the cells were incubated for 24 hours. The same protocol was used for incubation with Nε-(carboxymethyl)lysine (CML, final concentration 1 micromolar) and 1,3-morpholino sidnonimine (SIN-1, final concentration 0.5 mM). […] In a cell viability assay, fresh, untreated HUVEC cells were grown in 6 well plates until 80% confluence. Subsequently, the incubation medium was removed and the cells were washed with HBSS and harvested with trypsin. All cell material, including the medium and the HBSS wash, was collected and centrifuged for 5 minutes at 500×g. […] The number of viable (white) and dead (blue) cells were counted in 25 squares, and the count was repeated an additional two times for each sample, for a total of three counts per sample. […] The percentage of dead cells was then calculated with the formula: (blue cells/(blue cells+white cells))*100.

O=C(CO)[C@@H](O)[C@H](O)[C@H](O)CO[C@H]1O[C@H](CO)[C@@H](O)[C@H](O)[C@H]1O [6-O-α-D-glucopyranosyl-D-fructose]
cell death (leakage of lactate dehydrogenase) [1]: cell death was higher

OC[C@@H](O)[C@@H](O)[C@H](O)[C@H](O)CO [MAN, (2R,3R,4R,5R)-hexaan-1,2,3,4,5,6-hexol, reference compound]
protein carbonyls (HUVEC cells [2]): did not reduce protein carbonyls

[NH-]c1c[n+](N2CCOCC2)no1 [SIN-1, 3-morpholinosidnonimine]
percentage of dead cells (Average) (HUVEC cells [3]; HG 30 mM glucose 24 h, listed as SIN): 12.59% | percentage of dead cells (Average) (HUVEC cells [3]; NG 7 mM glucose 24 h): significant increase in the amount of dead cells; also recorded: increased the number of dead cells | percentage of dead cells (Average) (HUVEC cells [3]; NG 7 mM glucose 24 h, listed as SIN): 12.29%

O=C(CO)[C@@H](O)[C@H](O)[C@H](O)CO [fructose]
cell death (leakage of lactate dehydrogenase) ([1]; STC-1 cells, 10% w/v, 2 hours at 37° C.): cell death was higher

OC[C@H]1O[C@@](CO)(O[C@H]2O[C@H](CO)[C@@H](O)[C@H](O)[C@H]2O)[C@@H](O)[C@@H]1O [sucrose]
cell death (leakage of lactate dehydrogenase) [1]: cell death was higher
